According to patent US3954793A, “1-(2-Propynyl)-1 H-indazole compounds” (priority 1973, dated 1976):

What was measured:
male mice = test: extension of sleeping time of depressant drugs by synergists; format: in vivo, male mice (Swiss albino white); conditions: for Mean Sleeping Time, Noludar / Relative Sleeping Time, Noludar: Noludar 110 mg/kg; for Relative Sleeping Time, Noludar / Relative Sleeping Time, Secobarbital: treated/control; for Mean Sleeping Time, Secobarbital / Relative Sleeping Time, Secobarbital: Secobarbital 37 mg/kg
Method: The selectivity of the synergist compounds of this invention is illustrated by the results of sleeping-time extension tests and of acute toxicity tests on Swiss albino white male mice.
The effect of various synergist compounds on sleeping time of sodium secobarbital [Secobarbital] and of 3,3-diethyl-5-methyl-2,4-dioxypiperidine [Noludar] was determined by administering the drug, with and without synergist, to approximately 38-day old male mice weighing from 25 to 30 grams. Synergists were administered in each of two doses, 74.0 mg/kg (dilution being 2.0 mg/0.1 ml corn oil), and 110.0 mg/kg (dilution 3.0 mg/0.1 ml oil). Secobarbital was administered at a dose of 37.0 mg/kg (dilution 1.0 mg/0.1 ml water). Noludar was administered at a dose of 110.0 mg/kg (dilution 3.0 mg/0.1 ml water). The synergist was administered one hour prior to administration of the Secobarbital or Noludar. Secobarbital and Noludar sleeping times were obtained for both the control (drug only) and the treated (synergist plus drug) mice by noting the time lapse between the administration of the drug and the recovery of the righting reflex, i.e. when the animal regains conciousness and can walk up an inclined wooden tray with coordination. The relative sleeping time (R.S.) was noted. The R.S. is the extended sleeping time in the treated mice (synergist plus drug) divided by the sleeping time in the control mice (drug only). The mean sleeping time for the treated mice and the R.S. are shown on Table XXXXIV for various synergist compounds.

[1] = system: IN/WHO strain house flies; test: topical application, percent kill after 24 hours, susceptible IN/WHO strain; format: in vivo, female); conditions: for percent kill after 24 hours, synergist alone (GS 13005 part of Table XXXI): GS 13005 0, synergist 1 μg/fly; for percent kill after 24 hours, with GS 13005: GS 13005 0.10 + synergist 0.50 μg/fly; for percent kill after 24 hours, with Mobam: Mobam 0.20 + synergist 1 μg/fly; for percent kill after 24 hours, synergist alone: insecticide 0, synergist 1 μg/fly
Method: (§1) In Table IX, and in the tables following it, the doses of topically applied insecticides and of synergists unless otherwise noted are expressed as micrograms per fly (μg/fly).
(§2) The synergistic effect of O-(2-propynyl) oximes with mobam was determined from topical application tests on susceptible, female, IN/WHO strain house flies and from tests on resistant, female, Rutgers A strain house flies. The synergist and insecticide were dissolved in ACS Grade acetone in such quantities that a 1.0 μ liter volume applied to the thorax of 3-to-5 day old CO2 -anesthetized female adult house flies contained the desired dosage. After being treated, the flies were confined, 10 to a plaster petri dish, with 3-5 dishes/treament, and held for 24-hr. observation of mortality. Reconstituted skim milk on cotton dental wicks was provided during the holding period. The percent kills after 24 hours are shown in Table X for the IN/WHO strain and Table XI for the Rutgers A strain.
(§3) The synergistic effect of benzyl 2-propynyl ethers with mobam was determined from topical application tests on IN/WHO and Rutgers A strain houseflies, following the procedure of Example 5. The percent kills after 24 hours are shown in Table XIV for the IN/WHO strain and in Table XV for the Rutgers A strain.
The effects of varying the insecticide dose and the synergist-insecticide ratio are further illustrated, with synergist compounds II-D, II-E, II-F and Mobam insecticide, in Tables XVI, XVII and XVIII. […]
The effect on IN/WHO flies of synergist compound IV-C, identified in Table IV, with mobam was determined by the topical application procedure of Example 5. […]
(§4) The synergistic effect with GS 13005 of compounds I-A, I-B, I-D, I-E, I-F, I-G and I-I was determined from topical application tests to IN/WHO strain, Rutgers A strain and polyvalent CH strain houseflies using the procedures of Example 5. The percent kills of the IN/WHO strain flies after 24 hours are shown in Table XXVIII; of the Rutgers A strain, in Table XXIX; and of the polyvalent CH strain, in Table XXX. The doses of insecticide alone to the CH strain files caused 10-40% mortality.
The synergistic effect with Diazinon and GS 13005 of various of the benzyl 2-propynyl ethers identified in Tables II and IIa was determined by topical application tests on IN/WHO strain, and Rutgers A strain and polyvalent, resistant, CH strain houseflies using the procedures of Example 5. The percent kills after 24 hours of IN/WHO strain flies are shown in Table XXXI; of Rutgers A strain flies, in Table XXXII; and of CH strain flies, in Table XXXIII. The doses of insecticide alone to the CH strain flies caused 10-40% mortality. […]
(§5) The synergistic effect on IN/WHO strain flies and Rutgers A strain flies of compound IV-C with GS 13005 and with Diazinon was determined by the topical application procedure of Example 5. The percent kills of IN/WHO strain flies after 24 hours are shown in Tables XXXVI and XXXVII; the percent kills of Rutgers A strain flies are shown in Tables XXXVIII and XXXIX.

[2] = system: Swiss albino, white male mice; test: acute toxicity and synergism of acute toxicity in mice; format: in vivo; conditions: for number of mice dead, with Dimetilan: 48 hours
Method: To determine the acute toxicity of dimetilan alone, eight dosage levels of Dimetilan, ranging from 4 to 32 mg per kg were applied to eight, Swiss, albino, white, male mice per dosage level. The mice weighed approximately 23 to 27 grams and were five to six weeks old. The Dimetilan was administered intraperitoneally in 0.1 ml of corn oil one hour after the administration of the same dose of corn oil alone.
To determine the acute toxicity of the synergist alone, various synergists were administered intraperitoneally at a dose of 1000 mg/kg to each of a group of eight mice. The number of animals dead at the end of 72 hours is reported in the left hand column of Table XXXXVI.
The synergism of the acute toxicity of Dimetilan by various synergists was determined by tests on Swiss albino, white male mice aged five to six weeks and weighing 23 to 27 grams. The synergists and insecticides were dissolved in corn oil and the drugs were dissolved in distilled water. All compounds were administered intraperitoneally by injection in the lower quadrent of the abdomen. The synergist was administered in 0.1 ml of corn oil one hour prior to administration of the insecticide. Eight mice were treated, per dosage, with each synergist. The mice were watched for a minimum of 6 hours while held in a glass jar with bedding individually after intraperitoneal injection of the test solutions. Lethality was noted, the animals were weighed and transferred in cages, and food and water were supplied. Control mice were given 0.1 ml of corn oil at the time of administration of the synergist to the test mice and 0.1 ml corn oil plus Dimetilan at the time of administration of the insecticide to the test mice.
By the same procedure, the synergism of acute toxicity of GS 13005, Secobarbital and 6-dimethylamino-4,4-diphenyl-3-heptanone [Methadone] was determined.

[3] = system: Rutgers A strain house flies; test: topical application, percent kill after 24 hours, resistant Rutgers A strain; format: in vivo, female); conditions: for percent kill after 24 hours, with GS 13005: GS 13005 1.0 + synergist 5.0 μg/fly; for percent kill after 24 hours, with Mobam: Mobam 0.40 + synergist 2.0 μg/fly
Method: as §1, §2, §3
The synergistic effect with Diazinon of compounds I-B, I-D, I-F, I-G, I-H and I-I, identified in Tables I and Ia, was determined from topical application tests on IN/WHO strain houseflies and on Rutgers A strain houseflies by the procedure of Example 5. The percent kills after 24 hours are shown in Table XXV for the IN/WHO strain and Table XXVI for the Rutgers A strain.
as §4
The synergistic effect with Diazinon and GS 13005 of various of the benzyl 2-propynyl ethers identified in Tables II and IIa was determined by topical application tests on IN/WHO strain, and Rutgers A strain and polyvalent, resistant, CH strain houseflies using the procedures of Example 5. The percent kills after 24 hours of IN/WHO strain flies are shown in Table XXXI; of Rutgers A strain flies, in Table XXXII; and of CH strain flies, in Table XXXIII. The doses of insecticide alone to the CH strain flies caused 10-40% mortality.
as §5

[4] = synergist 110 mg/kg one hour prior
[5] = synergist 74 mg/kg one hour prior
[6] = Dimetilan 8 + synergist 80 mg/kg i.p., eight mice
[7] = Dimetilan 8 + synergist 240 mg/kg i.p., eight mice
[8] = insecticide 0, synergist 5.0 μg/fly

SMILES | Mean Sleeping Time, Noludar (male mice; [4]) | Relative Sleeping Time, Noludar (male mice; synergist 110 mg/kg) | Relative Sleeping Time, Secobarbital (male mice; synergist 74 mg/kg) | Mean Sleeping Time, Secobarbital (male mice; [4]) | Relative Sleeping Time, Secobarbital (male mice; synergist 110 mg/kg) | percent kill after 24 hours, synergist alone (GS 13005 part of Table XXXI) [1] | percent kill after 24 hours, with GS 13005 [1] | percent kill after 24 hours, with Mobam [1] | percent kill after 24 hours, synergist alone [1] | number of mice dead, with Dimetilan [2, 6] | number of mice dead, with Dimetilan [2, 7] | percent kill after 24 hours, with GS 13005 [3] | percent kill after 24 hours, synergist alone [3, 8] | other results
C#CCOCc1cccc([N+](=O)[O-])c1Cl [II-L] | 56 min | 1.8 | 1.0 | 42 min | 1.8 | 3% | 97% | 89% | 3% | 0 | 5 | 83% | 0% | Mean Sleeping Time, Secobarbital (male mice; [5]): 31 min; percent kill after 24 hours, with Mobam [3]: 52%
CCC(=O)C(CC(C)N(C)C)(c1ccccc1)c1ccccc1 (centres unmarked) [Methadone, 6-dimethylamino-4,4-diphenyl-3-heptanone, reference compound] |  |  |  |  |  |  |  |  |  |  |  |  |  | number of mice dead, control (Methadone alone) ([2]; Methadone (32 mg/kg) in 0.1 ml corn oil): 2
COP(=O)(OC)OC(=CCl)c1cc(Cl)c(Cl)cc1Cl [Gardona, 2-chloro-1-(2,4,5-trichlorophenyl) vinyl dimethyl phosphate, reference compound] |  |  |  |  |  |  |  |  |  |  |  |  |  | 24 hour percent mortality, Gardona alone ([1]; Gardona 0.031 μg/fly): 13%; 24 hour percent mortality, Gardona alone ([1]; Gardona 0.063 μg/fly): 73%; 24 hour percent mortality, Gardona alone ([1]; Gardona 0.125 μg/fly): 100%
C#CCOCc1cccc(Cl)c1[N+](=O)[O-] [II-I] | 56 min | 1.8 | 1.2 | 32 min | 1.3 | 7% | 99% | 97% | 7% | 0 | 3 | 83% | 3% | Mean Sleeping Time, Secobarbital (male mice; [5]): 31 min; percent kill after 24 hours, with Mobam [3]: 37%
C#CCON=Cc1ccc(Cl)cc1 [I-H] |  |  |  |  |  |  |  |  | 0% |  |  |  |  | percent kill after 24 hours, with Diazinon ([1]; Diazinon 0.02 + synergist 0.10 μg/fly): 47%; percent kill after 24 hours, with Diazinon ([3]; Diazinon 1.5 + synergist 7.5 μg/fly): 80%; percent kill after 24 hours, with Diazinon ([3]; Diazinon 3.0 + synergist 15 μg/fly): 100%; percent kill after 24 hours, synergist alone ([3]; insecticide 0, synergist 7.5 μg/fly): 0%; percent kill after 24 hours, synergist alone ([3]; insecticide 0, synergist 15 μg/fly): 0%
C#CCOCc1ccc([N+](=O)[O-])c(Cl)c1 [II-O] | 52 min | 2.4 |  | 26 min | 1.1 | 10% | 90% | 60% | 10% | 0 | 2 | 47% | 3% | 
COP(=O)(OC)O/C(C)=C/C(=O)N(C)C [Bidrin, 3-hydroxy-N,N-dimethyl-cis-crotonamide, dimethyl phosphate, reference compound] |  |  |  |  |  |  |  |  |  |  |  |  |  | 24 hour percent mortality, Bidrin alone ([1]; Bidrin 0.063 μg/fly): 0%; 24 hour percent mortality, Bidrin alone ([1]; Bidrin 0.13 μg/fly): 0%
C=CCC1(C(C)CCC)C(=O)NC(=O)NC1=O (centres unmarked) [Secobarbital, sodium secobarbital, reference compound] |  |  |  |  |  |  |  |  |  |  |  |  |  | number of mice dead, control (Secobarbital alone) ([2]; Secobarbital (90 mg/kg) in 0.1 ml corn oil): 0
CCOCCOCCOC(C)Oc1ccc2c(c1)OCO2 (centres unmarked) [Sesoxane, reference compound] |  | 3.1 | 6.1 |  | 8.3 |  |  |  |  | 8 | 8 |  |  | number of mice dead, with GS 13005 ([2]; GS 13005 71 + synergist 213 mg/kg): 0; number of mice dead, with Methadone ([2]; Methadone 32 + synergist 215 mg/kg): 5; number of mice dead, with Secobarbital ([2]; Secobarbital 90 + synergist 215 mg/kg): 6; number of mice dead, synergist alone ([2]; synergist 1000 mg/kg i.p., Dimetilan 0, 72 hours, eight mice): 1
CNC(=O)Oc1ccccc1OC(C)C [Baygon, o-isopropoxyphenyl methylcarbamate, reference compound] |  |  |  |  |  |  |  |  |  |  |  |  |  | 24 hour percent mortality, insecticide alone ([1]; insecticide 0.125 μg/fly (Table XXI)): 0%
